Laboratory results published in US20170281651A1, “CONCOMITANT ADMINISTRATION OF GLUCOCORTICOID RECEPTOR MODULATORS AND CYP3A OR STEROIDOGENESIS INHIBITORS” (Corcept Therapeutics, Inc., priority 2017, published 2017).

How the values were obtained:
Format in all cases: in vivo, human
[1] = Example 3: Phase 1 study of ketoconazole 200 mg twice daily with mifepristone 600 mg once daily with food, plasma PK incl. cross-study comparison; details: for mean increase / change in exposure on co-administration with ketoconazole: 600 mg mifepristone once daily with 200 mg ketoconazole twice daily; for effect of ketoconazole on exposure (90% CI vs standard 80:125 interval): Day 17 vs Day 12; for concentrations on Day 17 compared with Day 12: Day 17 with 200 mg ketoconazole twice daily, Day 12 mifepristone alone; for AUC0-24 Ratio % Test/Ref (cross-study, geometric mean ratio) / Cmax Ratio % Test/Ref (cross-study, geometric mean ratio): Test: Present Study Day 17 600 mg mifepristone OD + 200 mg Ketoconazole BID, Reference: Historic Study Day 7 1200 mg mifepristone OD alone, after 34% fat meal
[2] = Example 2: effect of a 400 mg single dose of ketoconazole on PK of an 8-day regimen of 300 mg or 600 mg OD mifepristone, moderate fat breakfast
Protocol: This was an open-label study in healthy male subjects. […] The 400 mg single dose of ketoconazole was given to all subjects on day 8.
METHODOLOGY: Twelve subjects were enrolled, six in Cohort 1 and 6 in Cohort 2.
Subjects were discharged on Day 11.
Subjects were discharged on Day 11. Subjects in both cohorts returned to study center on Day 13 for safety monitoring, collection of the 120-hour PK draw, and completion of the Termination Visit procedures, followed by discharge from the study. To the extent possible, any adverse events deemed study drug-related and that were ongoing at the time of discharge from the study were followed-up to resolution or until a determination was made that the unresolved event was stable.
DIAGNOSIS AND MAIN […] FOR INCLUSION: Healthy male volunteers between the ages of 18 to 45 years of age with a body mass index (BMI) ranging between 19 and 32 kg/m2 and a weight of at least 60 kg (132 lbs) were enrolled. Subjects had no clinically significant abnormal findings on the physical examination, ECG, blood pressure, heart rate, medical history, or clinical laboratory results during screening. The QTc interval at screening was less than 450 msec.
DURATION OF TREATMENT: Up to a total of 28 days, including up to 2 weeks screening, dosing on Days 1-8, safety observation, and PK sample collection through Day 13.
Additionally, comparisons were made between the PK results of cohort 1 and 2. Pharmacokinetic parameters Cmax, T1/2 and total AUC were calculated for plasma concentrations of ketoconazole following the single dose on Day 8. Descriptive statistics (count, mean, median, standard deviation, minimum, maximum, and % coefficient of variation) were provided. Ketoconazole concentrations were listed and summarized. GM means of Cmax and total AUC were compared for the single dose in this study to the combined data of reported 400 mg single doses of ketoconazole of healthy subjects from the literature.

[3] = Example 1: safety (adverse events, laboratory tests, ECG); details: mifepristone 300 mg single dose with ketoconazole for 14 days
Protocol: In cohort 1, six subjects received ketoconazole 400 mg OD for 14 days.
In cohort 2, six subjects received ketoconazole 200 mg BID for 14 days. […] All 12 subjects completed the study. Cohort 2 subjects participated in a Screening visit to assess eligibility and a check-in Day (Day −1) during which eligibility was re-confirmed. […] The evening of Day 1, subjects received 200 mg oral ketoconazole. Subjects remained in the clinic on Days 2, 3 and 4 to receive 200 mg BID oral ketoconazole, and for safety evaluation and collection of blood pharmacokinetic (PK) samples. Subjects were discharged from the clinic on Day 4 following evening administration of 200 mg oral ketoconazole, and returned to the clinic the morning and evening of Days 5 through 13 to receive 200 mg BID oral ketoconazole. Morning doses of ketoconazole on Days 0-13 were administered in the fasted state.
Subjects in both cohorts returned to the study center on Day 15 for safety monitoring, and completion of the Termination Visit procedures, followed by discharge from the study. Safety was assessed by spontaneously reported adverse events, physical examinations, and routine clinical laboratory tests. To the extent possible, any adverse events deemed study drug-related and that were ongoing at the time of discharge from the study were followed-up to resolution or until a determination is made that the unresolved event was stable.

[4] = Test: Day 17 600 mg mifepristone OD + 200 mg Ketoconazole BID, Reference: Day 12 600 mg mifepristone OD
[5] = single 400 mg ketoconazole dose on Day 8
[6] = 400 mg ketoconazole (200 mg twice per day) concomitantly with 600 mg mifepristone per day, fifth day
[7] = Test: Day 17 600 mg mifepristone OD + 200 mg Ketoconazole BID, Reference: Day −1 200 mg Ketoconazole Single Dose

SMILES | mean increase / change in exposure on co-administration with ketoconazole [1] | effect of ketoconazole on exposure (90% CI vs standard 80:125 interval) [1] | concentrations on Day 17 compared with Day 12 [1] | AUC0-24 Ratio % Test/Reference (geometric mean ratio) [1, 4] [%] | Cmax Ratio % Test/Reference (geometric mean ratio) [1, 4] [%] | AUC0-24 Ratio % Test/Ref (cross-study, geometric mean ratio) [1] [%] | Cmax Ratio % Test/Ref (cross-study, geometric mean ratio) [1] [%] | mean metabolite exposure compared with mifepristone ([2]; 300 or 600 mg OD mifepristone, Days 7-13) | share of total steady-state AUC0-24 of mifepristone, RU42633, RU42698, RU42848 ([1]; in the presence of ketoconazole) [%] | share of total steady-state AUC0-24 of mifepristone, RU42633, RU42698, RU42848 ([1]; mifepristone alone) [%] | TEAEs considered by the investigator to be related to the drug [3] | AUCinf higher on 600 mg OD mifepristone regimen relative to 300 mg OD [2, 5] [%] | Cmax higher on 600 mg OD mifepristone regimen relative to 300 mg OD [2, 5] [%] | half-life on either mifepristone regimen ([2]; single 400 mg ketoconazole dose on Day 8, mifepristone 300 vs 600 mg OD) | increase in ketoconazole AUC [1, 6] [%] | increase in ketoconazole Cmax [1, 6] [%] | AUC Ratio % Test/Reference (geometric mean ratio) [1, 7] [%] | Cmax Ratio % Test/Reference (geometric mean ratio) [1, 7] [%]
CC#C[C@]1(O)CC[C@H]2[C@@H]3CCC4=CC(=O)CCC4=C3[C@@H](c3ccc(N)cc3)C[C@@]21C [RU 42848, (8S,11R,13S,14S,17S)-11-(4-aminophenyl)-17-hydroxy-13-methyl-17-prop-1-ynyl-1,2,6,7,8,11,12,14,15,16-decahydrocyclopenta[a]phenanthren-3-one] | little change | not affected | similar | 94.88 | 95.48 | 81.43 | 82.45 | – | – | – | – | – | – | – | – | – | – | –
CC#C[C@]1(O)CC[C@H]2[C@@H]3CCC4=CC(=O)CCC4=C3[C@@H](c3ccc(NC)cc3)C[C@@]21C [RU 42633, (8S,11R,13S,14S,17S)-17-hydroxy-13-methyl-11-[4-(methylamino)phenyl]-17-prop-1-ynyl-1,2,6,7,8,11,12,14,15,16-decahydrocyclopenta[a]phenanthren-3-one] | little change | not affected | similar | 102.33 | 105.73 | 91.34 | 96.31 | – | – | – | – | – | – | – | – | – | – | –
CN(C)c1ccc([C@H]2C[C@@]3(C)[C@@H](CC[C@@]3(O)C#CCO)[C@@H]3CCC4=CC(=O)CCC4=C32)cc1 [RU 42698, (8S,11R,13S,14S,17S)-11-[4-(dimethylamino)phenyl]-17-hydroxy-17-(3-hydroxyprop-1-ynyl)-13-methyl-1,2,6,7,8,11,12,14,15,16-decahydrocyclopenta[a]phenanthren-3-one] | approximately 70% | increased | higher | 166.86 | 169.13 | 118.18 | 116.55 | lower | 13 | 9 | – | – | – | – | – | – | – | –
CC(=O)N1CCN(c2ccc(OCC3COC(Cn4ccnc4)(c4ccc(Cl)cc4Cl)O3)cc2)CC1 (centres unmarked) [ketoconazole, 1-acetyl-4-[4-[[2-(2,4-dichlorophenyl)-2-[(1H-imidazol-1-yl)-methyl]-1,3-dioxolan-4-yl]methoxy]phenyl]piperazine] | – | – | – | – | – | – | – | – | – | – | One TEAE of insomnia | 36 | 37 | not appreciably different | 253 | 365 | 365.36 | 252.71
